Assay results reported in US9380788B2, “Package for plant antimicrobial treatment” (priority 2013, dated 2016).

What follows are compounds tested on pepper plants. Conditions: plants sprayed with oregano/sesame oil emulsion made with the emulsifier.
Type: in vivo

`CCCCCCCCCCCCOS(=O)(=O)[O-].[Na+]` [SDS] was tested. Which “Phytotoxicity on pepper plants” value did it give?
The value was “phytotoxicity”.

`CCCCCCCC/C=C\CCCCCCCC(=O)OCCOCC(OCCO)C1OCC(OCCO)C1OCCO` (stereo not shown) [Tween 80] was tested. Which “Phytotoxicity on pepper plants” value did it give?
Its value is “phytotoxicity”.

For `CCCCCCCCCCCCCCCCCC(=O)[O-].[Na+]` [sodium stearate, Sodium Stearate], which “Phytotoxicity on pepper plants” value is on record?
Its value is “very vital”.

With Triton X 100 [Triton X100] as the compound, how does the “Phytotoxicity on pepper plants” value read?
The value was “phytotoxicity”.
